For one series, the system named is NestinGFP+ cells. Kind of series: Cuprizone model of demyelination and remyelination, fate of NestinGFP+ cells. It counts as in vivo, mouse. On the procedure:
Demyelination was induced by feeding 6 to 8-week-old mice a diet containing 0.2% cuprizone (bis-cyclohexanone oxaldihydrazone; Sigma C9012) mixed into a ground standard rodent chow for 4 to 5 weeks (Harlan Laboratories, TD.01453). To allow recovery from cuprizone treatment, food was replaced with standard chow for an additional 1 week.
All tissue sections were and cells incubated in blocking/permeabilization solution containing 10% normal goat serum, 1% BSA, and 0.3% Triton-X in PBS for 45 to 60 min prior to 24 or 48 h of incubation with primary antibodies in 5% normal goat serum and 0.1% Triton-X in PBS at 4° C. at the concentrations listed below. […], Alexa488, or Cy3 conjugated-secondary antibodies diluted in 2% normal goat serum, 1% BSA, and 0.1% Triton-X in PBS were added for 2 h at room temperature. Nuclei were stained with 4,6-diamidino-2-phenylindole (Sigma) for 10 min at room temperature.
For tissue sections, high-magnification (20×, 0.8DICII or 40× oil 1.3DICII) microscopic imaging was performed using a Zeiss Axioimage.Z1. Images were taken in z-stacks of 1 μm steps through the range of tissue section immunoreactivity. For the dorsolateral corner of the SVZ, images were taken from bregma 1.10 to −0.10 mm. For the corpus callosum, images were taken from bregma −1.06 to −2.54 mm. For the dentate gyrus, images were taken from bregma −1.34 to −3.64 mm. Quantification was performed blinded to genotype on 3-8 tissue sections per animal. Cell densities were estimated by the number of immunoreactive cells divided by the area of the structure, measured with ImageJ. Verification of colocalization was achieved by importing stacks of Z images into ImageJ and performing 3D rendering. For cells, 10 or 20× microscopic imaging was performed using a Zeiss Axioimage.Z1. Quantification was performed blinded to genotype on 2 to 3 fields of view per sample and treatment, from 3 to 9 independent samples.
The inventors employed the cuprizone model of demyelination and remyelination. Specifically, the inventors fed 6- to 9-week-old iNSPC-Nampt-KO and littermate control mice (iNSPC-GFP) a diet containing 0.2% cuprizone for 4-5 weeks, inducing deletion of Nampt in the adult Nestin+ population the week before starting the cuprizone diet (FIG. 20B) (Skripuletz et al, 2011). To ensure that analysis of progeny of adult Nestin+ cells, all mice in our cohort expressed Cre recombinase under the inducible Nestin promoter (Nestin-CreERT2) (Lagace et al, 2007) and the aforementioned Cre recombinase responsive GFP reporter transgene. The analysis focus was on lineage tracer marked (NestinGFP+) cells.

The conditions of series [1]: cited from earlier work.
The next series addresses T1, Sirt2 (Mus musculus, UniProt Q8VDQ8).
T1 construct: endogenous in cells; host or cells: dissociated primary neurospheres (NSPCs) from postnatal mouse hippocampi, differentiated for 6-7 days
T1 sequence (Q8VDQ8 1-389): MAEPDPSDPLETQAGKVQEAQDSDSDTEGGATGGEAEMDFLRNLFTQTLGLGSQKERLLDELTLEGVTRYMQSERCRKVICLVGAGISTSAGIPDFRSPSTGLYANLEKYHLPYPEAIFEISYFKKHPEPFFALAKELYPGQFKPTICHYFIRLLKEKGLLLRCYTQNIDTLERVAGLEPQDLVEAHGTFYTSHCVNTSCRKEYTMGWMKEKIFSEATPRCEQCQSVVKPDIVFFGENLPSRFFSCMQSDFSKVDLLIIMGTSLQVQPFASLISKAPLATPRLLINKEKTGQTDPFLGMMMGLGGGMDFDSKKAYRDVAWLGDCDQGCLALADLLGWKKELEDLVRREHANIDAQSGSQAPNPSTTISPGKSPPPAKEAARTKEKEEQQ
Kind of series: Oligodendrocyte formation from dissociated neurospheres with Sirt2 inhibitor. It counts as cell-based. Conditions: AGK2 10 μM, 6-7 days of differentiation. As to the method: FK866 (Hasmann & Schemainda, 2003) (Sigma F8557), EX527 (Peck et al, 2010) (Cayman Chemical 10009798), and AGK2 (Outeiro et al, 2007) (Sigma A8231) were dissolved in DMSO and used to inhibit Nampt, Sirt1, and Sirt2 respectively.
Three to five days after their first passage, neurospheres were trypsinized, washed with dissociation medium, and plated at 150,000 cells per well in 24-well plates in differentiation medium [growth medium without FGF and EGF and with BDNF (5 ng/mL, Peprotech, 450-02) on glass coverslips coated with poly-D-lysine (50 ug/mL; Sigma) and laminin (20 ug/mL; BD Biosciences)]. 6-well plates were coated with poly-D-lysine (20 ug/mL) and laminin (10 ug/mL). To enrich for oligodendrocytes, PDGFαα (10 ng/ml, Peprotech 100-13A) was added to neurospheres at passage 2 and PDGFαα (2.5 ng/ml) and 3,3-,5-triiodo-L-thyronine (T3, 40 ng/ml, Sigma T4397) were added to differentiation medium. The percentage of oligodendrocyte precursor cells (OPCs) generated was analyzed after 2 d of differentiation, and the percentage of differentiated oligodendrocytes was analyzed after 6-7 d of differentiation.
The inventors acutely treated NSPCs with the selective inhibitor of Sirt2, AGK2, or the Sirt1 inhibitor, EX527. […] The inventors generated Sirt1/Sirt2-double knockout (Sirt1/2 DKO) neurospheres. […]

The target of the next series is T2, Sirt1 (Mus musculus, UniProt Q923E4).
T2 construct: endogenous in cells; host or cells: dissociated primary neurospheres (NSPCs) from postnatal mouse hippocampi, differentiated for 6-7 days
T2 sequence (Q923E4 1-737): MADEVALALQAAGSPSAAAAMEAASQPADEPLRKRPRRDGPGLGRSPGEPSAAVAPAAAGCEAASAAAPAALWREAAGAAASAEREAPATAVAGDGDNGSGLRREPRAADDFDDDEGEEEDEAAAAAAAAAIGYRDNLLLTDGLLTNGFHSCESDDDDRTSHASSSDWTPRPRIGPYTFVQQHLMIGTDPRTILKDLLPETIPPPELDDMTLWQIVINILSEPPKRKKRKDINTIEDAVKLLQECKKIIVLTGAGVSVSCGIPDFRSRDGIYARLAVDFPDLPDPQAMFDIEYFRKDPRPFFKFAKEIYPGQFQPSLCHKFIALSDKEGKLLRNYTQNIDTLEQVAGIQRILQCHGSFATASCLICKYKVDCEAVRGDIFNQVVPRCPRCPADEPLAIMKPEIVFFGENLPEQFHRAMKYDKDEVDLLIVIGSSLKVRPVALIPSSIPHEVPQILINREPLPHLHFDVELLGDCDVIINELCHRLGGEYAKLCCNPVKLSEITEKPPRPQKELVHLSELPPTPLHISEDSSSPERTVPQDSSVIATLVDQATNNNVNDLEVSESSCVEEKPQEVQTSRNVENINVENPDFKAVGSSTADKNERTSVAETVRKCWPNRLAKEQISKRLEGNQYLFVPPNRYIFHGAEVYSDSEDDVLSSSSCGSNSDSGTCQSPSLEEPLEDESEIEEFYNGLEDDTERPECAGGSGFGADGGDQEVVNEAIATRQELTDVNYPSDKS
Kind of series: Oligodendrocyte formation from dissociated neurospheres with Sirt1 inhibitor. It counts as cell-based. Conditions: EX527 80 μM, 6-7 days of differentiation.

Where [2] appears, read: CC of control mice, cuprizone feeding.
Where [3] appears, read: iNSPC-GFP CC, cuprizone feeding.

Source text for Sirt1: Data are presented as mean±s.e.m. *P<0.05. **P<0.01. ***P<0.001.

For the molecule `O=C(NN=C1CCCCC1)C(=O)NN=C1CCCCC1` [cuprizone, bis-cyclohexanone oxaldihydrazone], in the series with NestinGFP+ cells (0.2% cuprizone diet 4-5 weeks), the “total number of NestinGFP+ cells in the iNSPC-GFP DG” value was “did not alter”. Also, in the series with NestinGFP+ cells (setting [2]), the “NestinGFP+Apc+ double positive cells” value was 4% and the “NestinGFP+Sox10+ double positive cells” value worked out at 16%. Also, in the series on NestinGFP+ cells (SGZ, cuprizone fed), the “percentage of NestinGFP+ cells co-localized with Gfap+” value is given as 41% and the “percentage of NestinGFP+ cells co-localized with Nestin+” value stood at 35%. In the series with NestinGFP+ cells (setting [3]), the “NestinGFP+Gfap+ double positive cells” value was found to be 24% and the “percentage of NestinGFP+Nestin+ cells” value is reported as 41%.

Consider `O=C(O)c1cccnc1` [nicotinic acid], for which, in series [1] (chronic administration), the “skeletal muscle insulin resistance” value was “can cause skeletal muscle insulin resistance”. In series [1] (chronic treatment), the “blood FFA levels” value is “tends to increase blood FFA levels”; the “total cholesterol and triglyceride levels” value was “lowers total cholesterol and triglyceride levels”.

As for `N#C/C(=C\c1ccc(-c2cc(Cl)ccc2Cl)o1)C(=O)Nc1cccc2ncccc12` [AGK2], the “oligodendrocyte formation (O4+)” value at Sirt2 was “acutely suppressed oligodendrocyte formation”.

Take `NC(=O)C1CCCc2c1[nH]c1ccc(Cl)cc21` (stereo not drawn) [EX527]: the “oligodendrocyte formation (O4+)” value at Sirt1 is “acutely suppressed oligodendrocyte formation”.

The values are drawn from patent publication US11793824B2, “Administration of nicotinamide mononucleotide in the treatment of disease” (Washington University, priority 2013, dated 2023).
